Data set [1] addresses T1, CaCYP51 (Candida albicans, UniProt P10613).
T1 construct: made in house; host or cells: Escherichia coli
The data set can be described thus: biochemical. Particulars: 1 μM CaCYP51, lanosterol as substrate, curve-fitted; read-out: CaCYP51 IC50. How it is done: […]. […] […]. CYP51 reconstitution assays. IC50 values were determined for individual azole compounds18, 30 using lanosterol as substrate. Azoles were introduced using 2.5 μL of stock solutions in DMSO. CaCYP51 assays contained 1 μM CaCYP51 and 2 μM Homo sapiens cytochrome P450 reductase (HsCPR – UniProtKB accession number P16435) and were incubated for 20 min at 37 °C. HsCYP51 assays contained 0.25 μM Δ60HsCYP51 and 1 μM HsCPR and were incubated for 10 min at 37 °C. Each IC50 experiment was performed in duplicate.

For data set [2], the system named is C. albicans SC5314. Nature of the data set: MIC, CLSI M27-S4 broth dilution, strain SC5314. Type of data set: cell-based, Candida albicans. Particulars: 48 hours. As to the method:
The susceptibilities of the SC5314 and CA14C. albicans (azole sensitive) strains to all novel azole derivatives (5, 7 and 12) were determined (Table 3) using the standardized CLSI M27‐S4 broth dilution method.28
Susceptibility testing of C. albicans strains. […] Stock solutions of each agent were prepared in DMSO. Further dilutions were made in RPMI‐1640, and the final concentration of DMSO was 1 % (v/v). The final testing concentrations for all compounds ranged from 0.03–16 μg mL^−1.
For orientation: In broth dilution the organism is exposed to a series of concentrations in liquid medium.

The target in data set [3] is T1, CaCYP51. The data set can be described thus: biochemical. Type of data set: binding. The note with it: 3 μM native CaCYP51, mean of three replicates ± SD; read-out: K d CaCYP51. The source says:
[…]. There were no signs of compound insolubility (visible or rising background absorbance) during the ligand titrations. […] […].
The rearranged Morrison equation34 gave the best fit to the ligand saturation curves against CaCYP51 (Figure 5) indicating the selected compounds bound tightly to the purified CaCYP51 protein in free solution. Likewise the rearranged Morrison equation34 gave the best fit for binding 5 d and 5 f to Δ60HsCYP51, thus indicating tight binding in free solution (Figure 5). […].
Recombinant CYP51 protein studies. […] All azole ligand binding determinations were performed in triplicate, except the binding of compound 12 c with Δ60HsCYP51 which was performed six times. CYP51 protein samples were diluted with 0.1 M Tris⋅HCl (pH 8.1) and 25 % (w/v) glycerol to the required concentration.
Dissociation constant (K d). The K d for each CYP51‐azole complex was determined by non‐linear regression (Levenberg‐Marquardt algorithm) using a rearrangement of the Morrison equation for tight ligand binding.34 Where ligand binding was weaker, the Michaelis‐Menten equation was used to fit the data (Figure S5). K d values were determined for each of the three replicate titrations per azole compound and then mean K d values and standard deviations calculated.

Data set [4] has as its system C. albicans CA14. The data set can be described thus: MIC, CLSI M27-S4 broth dilution, strain CA14. The format is cell-based, Candida albicans. The note with it: 48 hours. As to the method:
Susceptibility testing of C. albicans strains. […] Stock solutions of each agent were prepared in DMSO. […] The final testing concentrations for all compounds ranged from 0.03–16 μg mL^−1.

[5] abbreviates: Candida albicans, SC5314, 80 % reduction in turbidity.
The mark [6] stands for this setting: Candida albicans, SC5314, value in brackets.
Setting [7] is: Candida albicans, CA14, 80 % reduction in turbidity.
Setting [8] is: Candida albicans, CA14, value in brackets.

In brackets after ≈: the same amount, converted by molar mass.

T1 sequence (P10613 whole entry): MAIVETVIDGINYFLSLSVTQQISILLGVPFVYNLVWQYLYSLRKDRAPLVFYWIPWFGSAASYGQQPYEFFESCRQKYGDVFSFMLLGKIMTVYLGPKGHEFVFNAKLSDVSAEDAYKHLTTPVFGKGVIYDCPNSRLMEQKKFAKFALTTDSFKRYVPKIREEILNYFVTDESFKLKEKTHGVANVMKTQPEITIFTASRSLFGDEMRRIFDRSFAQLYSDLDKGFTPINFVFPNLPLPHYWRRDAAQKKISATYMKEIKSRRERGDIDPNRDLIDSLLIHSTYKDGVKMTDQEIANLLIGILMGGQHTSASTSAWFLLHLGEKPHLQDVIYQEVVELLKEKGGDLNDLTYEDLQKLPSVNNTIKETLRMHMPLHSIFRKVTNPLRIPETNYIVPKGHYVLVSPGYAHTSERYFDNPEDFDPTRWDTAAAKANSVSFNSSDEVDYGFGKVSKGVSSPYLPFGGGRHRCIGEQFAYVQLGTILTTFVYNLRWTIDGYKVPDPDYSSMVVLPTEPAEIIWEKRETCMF

Turning to `C=C(C(=O)NCc1ccc(NS(=O)(=O)c2ccc(OC)cc2)cc1)c1ccccc1` [Compound 13 d, N‐(4‐((4‐Methoxyphenyl)sulfonamido)benzyl)‐2‐phenylacrylamide], the melting point lay in the range of 98 to 100 °C.

As to `COc1ccc(CNC(=O)C(Cn2ccnc2)c2ccccc2)cc1` (centres unmarked) [Compound 5 i, 3‐(1H‐Imidazol‐1‐yl)‐N‐(4‐methoxybenzyl)‐2‐phenylpropanamide], the melting point lay within 102 to 104 °C. The IC50 in data set [1] came out at 910 nM. This molecule came in with a minimal inhibitory concentration (MIC) in data set [2] (setting [5]) of 8 µg/mL. The lowest concentration to inhibit growth in data set [2] (setting [6]) (MIC) was 23.9 µM. Besides, the Kd in data set [3] amounted to 55 ± 10 nM. In data set [4] (setting [7]), the MIC is 8 µg/mL. Moreover, in data set [4] (setting [8]), the MIC amounted to 23.9 µM.

For the molecule `COc1ccc(CNC(=O)C(Cn2ccnc2)c2ccccc2)cc1OC` (centres unmarked) [Compound 5 j, N‐(3,4‐Dimethoxybenzyl)‐3‐(1H‐imidazol‐1‐yl)‐2‐phenylpropanamide], in data set [1], the IC50 stood at 6150 nM. Moreover, the MIC is more than 16 µg/mL in data set [2] (setting [5]), more than 43.8 µM in data set [2] (setting [6]), more than 16 µg/mL in data set [4] (setting [7]) and more than 43.8 µM in data set [4] (setting [8]).

In the case of `C=C(C(=O)NCc1ccc(F)cc1)c1ccccc1` [Compound 6 b, N‐(4‐Fluorobenzyl)‐2‐phenylacrylamide], the melting point is 108 to 110 °C.

`C=C(C(=O)NCc1ccc(Cl)cc1Cl)c1ccc(Cl)cc1` [Compound 6 f, 2‐(4‐Chlorophenyl)‐N‐(2,4‐dichlorobenzyl)acrylamide] came in with a melting point of 104 to 106 °C.

`C=C(C(=O)NCc1ccc(C(F)(F)F)cc1)c1ccccc1` [Compound 6 h, 2‐Phenyl‐N‐(4‐(trifluoromethyl)benzyl)acrylamide] yielded a melting point of 88 to 90 °C.

`C=C(C(=O)NCc1ccc(Cl)cc1Cl)c1ccccc1` [Compound 6 e, N‐(2,4‐Dichlorobenzyl)‐2‐phenylacrylamide]: the melting point was in the range of 66 to 68 °C.

As for `Nc1ccc(CNC(=O)C(Cn2cncn2)c2ccccc2)cc1.O=C(O)C(F)(F)F` (centres unmarked) [Compound 7], the 50% inhibitory concentration (IC50) in data set [1] stood at 1960 nM. The “MIC SC5314” value in data set [2] (80 % reduction in turbidity) is more than 16 µg/mL. For the same molecule, the MIC in data set [2] (value in brackets) and in data set [4] (value in brackets) was more than 36.8 µM in each case. Also, in data set [4] (80 % reduction in turbidity), the “MIC CA14” value was more than 16 µg/mL.

`O=C(NCc1ccc(Cl)cc1Cl)C(Cn1ccnc1)c1ccccc1` (centres unmarked) [Compound 5 e, N‐(2,4‐Dichlorobenzyl)‐3‐(1H‐imidazol‐1‐yl)‐2‐phenylpropanamide] returned a melting point of 55 to 57 °C. In addition, the IC50 in data set [1] is 990 nM. In data set [2] (setting [5]), inhibition of growth (MIC) required 1 µg/mL. For the same molecule, the MIC in data set [2] (setting [6]) was 2.67 µM. Also, in data set [3], the Kd amounted to 83 ± 26 nM. The MIC in data set [4] (setting [7]) was determined as 1 µg/mL. Also, in data set [4] (setting [8]), the minimum inhibitory concentration (MIC) worked out at 2.67 µM.

Consider `C=C(C(=O)NCc1ccc(Cl)cc1)c1ccc(Cl)cc1` [Compound 6 d, N‐(4‐Chlorobenzyl)‐2‐(4‐chlorophenyl)acrylamide], for which the melting point is 108 to 110 °C.

`C=C(C(=O)NCc1ccc(NC(=O)OC(C)(C)C)cc1)c1ccccc1` [Compound 6 l, tert‐Butyl (4‐((2‐phenylacrylamido)methyl)phenyl)carbamate] showed a melting point of 136 to 138 °C.

`C=C(C(=O)NCc1ccc(OC)cc1)c1ccccc1` [Compound 6 i, N‐(4‐Methoxybenzyl)‐2‐phenylacrylamide] gave a melting point of 100 to 102 °C.

The molecule `C=C(C(=O)NCc1ccc(OC)c(OC)c1)c1ccccc1` [Compound 6 j, N‐(3,4‐Dimethoxybenzyl)‐2‐phenylacrylamide] returned a melting point of 102 to 104 °C.

With `Cc1ccc(CNC(=O)C(Cn2ccnc2)c2ccccc2)cc1` (centres unmarked) [Compound 5 g, 3‐(1H‐Imidazol‐1‐yl)‐N‐(4‐methylbenzyl)‐2‐phenylpropanamide], the melting point fell in the range of 134 to 136 °C. For the same molecule, in data set [1], the IC50 came to 2450 nM. Further, the lowest concentration to inhibit growth in data set [2] (setting [5]) (MIC) was 8 µg/mL. Further, the lowest concentration to inhibit growth in data set [2] (setting [6]) (MIC) was 25.1 µM. Further, the Kd in data set [3] is 144 ± 47 nM. The molecule further yielded a minimal inhibitory concentration (MIC) in data set [4] (setting [7]) of 8 µg/mL. The MIC in data set [4] (setting [8]) turned out to be 25.1 µM.

Molecule `C=C(C(=O)NCc1ccc(C)cc1)c1ccccc1` [Compound 6 g, N‐(4‐Methylbenzyl)‐2‐phenylacrylamide] yielded a melting point of 92 to 94 °C.

In the case of `O=C(NCc1ccc(Cl)cc1)C(Cn1cncn1)c1ccccc1` (centres unmarked) [Compound 5 k, N‐(4‐Chlorobenzyl)‐2‐phenyl‐3‐(1H‐1,2,4‐triazol‐1‐yl)propanamide], the IC50 in data set [1] was found to be 4320 nM. In data set [2] (80 % reduction in turbidity), the “MIC SC5314” value stood at 8 µg/mL (≈ 23.5 µM). Besides, the MIC in data set [2] (value in brackets) and in data set [4] (value in brackets) was 23.5 µM throughout. The Kd in data set [3] turned out to be 167 ± 17 nM. Besides, the “MIC CA14” value in data set [4] (80 % reduction in turbidity) was 8 µg/mL (≈ 23.5 µM).

With `O=C(NCc1ccc(F)cc1)C(Cn1ccnc1)c1ccccc1` (centres unmarked) [Compound 5 b, N‐(4‐Fluorobenzyl)‐3‐(1H‐imidazol‐1‐yl)‐2‐phenylpropanamide], the melting point lay within 100 to 102 °C. Moreover, the IC50 in data set [1] is 1410 nM. The MIC in data set [2] (setting [5]) is 8 µg/mL. Also, the MIC in data set [2] (setting [6]) came out at 24.7 µM. The Kd in data set [3] is 87 ± 27 nM. In addition, in data set [4] (setting [7]), the MIC is 4 µg/mL. Moreover, the minimal inhibitory concentration (MIC) in data set [4] (setting [8]) was 12.4 µM.

With `COc1ccc(S(=O)(=O)Nc2ccc(CNC(=O)C(Cn3cncn3)c3ccccc3)cc2)cc1` (centres unmarked) [Compound 12 d, 2‐Phenyl‐N‐(4‐(4‐methoxyphenylsulfonamido)benzyl)‐3‐(1H‐1,2,4‐triazol‐1‐yl)propanamide], the IC50 in data set [1] came to 790 nM. Further, the MIC came to 8 µg/mL in data set [2] (setting [5]), 16.3 µM in data set [2] (setting [6]), 4 µg/mL in data set [4] (setting [7]) and 8.14 µM in data set [4] (setting [8]). Further, the Kd in data set [3] worked out at 110 ± 22 nM.

With `O=C(NCc1ccc(C(F)(F)F)cc1)C(Cn1ccnc1)c1ccccc1` (centres unmarked) [Compound 5 h, 3‐(1H‐Imidazol‐1‐yl)‐2‐phenyl‐N‐(4‐(trifluoromethyl)benzyl)propanamide], the IC50 in data set [1] stood at 2210 nM. Also, the MIC in data set [2] (setting [5]) came out at 4 µg/mL; in data set [2] (setting [6]), 10.7 µM; in data set [4] (setting [7]), 4 µg/mL; in data set [4] (setting [8]) it was 10.7 µM. Further, the Kd in data set [3] worked out at 85 ± 19 nM.

For the molecule `O=C(NCc1ccc(NS(=O)(=O)c2ccccc2)cc1)C(Cn1cncn1)c1ccccc1` (centres unmarked) [Compound 12 a, 2‐Phenyl‐N‐(4‐(phenylsulfonamido)benzyl)‐3‐(1H‐1,2,4‐triazol‐1‐yl)propanamide], the melting point fell in the range of 96 to 98 °C. The concentration for half-maximal inhibition (IC50) in data set [1] is 540 nM. In addition, in data set [2] (setting [5]), it took 4 µg/mL to inhibit growth (MIC). The same molecule gave an MIC in data set [2] (setting [6]) of 8.67 µM. Also, the Kd in data set [3] worked out at 115 ± 16 nM. The MIC in data set [4] (setting [7]) came to 4 µg/mL. For the same molecule, in data set [4] (setting [8]), the MIC stood at 8.67 µM.

On to `C=C(C(=O)NCc1ccc(NS(=O)(=O)c2ccc(F)cc2)cc1)c1ccccc1` [Compound 13 b, N‐(4‐((4‐Fluorophenyl)sulfonamido)benzyl)‐2‐phenylacrylamide], for which the melting point fell in the range of 136 to 138 °C.

Consider `O=C(NCc1ccc(NS(=O)(=O)c2ccc(F)cc2)cc1)C(Cn1cncn1)c1ccccc1` (centres unmarked) [Compound 12 b, N‐(4‐((4‐Fluorophenyl)sulfonamido)benzyl)‐2‐phenyl‐3‐(1H‐1,2,4‐triazol‐1‐yl) propanamide], for which the IC50 in data set [1] came to 200 nM. Further, in data set [2] (80 % reduction in turbidity), the “MIC SC5314” value amounted to 4 µg/mL (≈ 8.34 µM). For the same molecule, the figures for the MIC in data set [2] (value in brackets) and in data set [4] (value in brackets) were 8.34 µM and 4.17 µM, respectively. Also, the Kd in data set [3] came to 55 ± 27 nM. Moreover, in data set [4] (80 % reduction in turbidity), the “MIC CA14” value was 2 µg/mL (≈ 4.17 µM).

For `O=C(NCc1ccc(Cl)cc1)C(Cn1ccnc1)c1ccccc1` (centres unmarked) [Compound 5 c, N‐(4‐Chlorobenzyl)‐3‐(1H‐imidazol‐1‐yl)‐2‐phenylpropanamide], the IC50 in data set [1] stood at 1010 nM. Also, in data set [2] (80 % reduction in turbidity), the “MIC SC5314” value came to 8 µg/mL (≈ 23.5 µM). Besides, the MIC was found to be 23.5 µM in data set [2] (value in brackets) and 11.8 µM in data set [4] (value in brackets). In data set [3], the Kd is 60 ± 4 nM. Also, in data set [4] (80 % reduction in turbidity), the “MIC CA14” value amounted to 4 µg/mL (≈ 11.8 µM).

One may read the melting point as the temperature, or range, at which the solid turns liquid. By IC50 is commonly meant the concentration that gives 50% inhibition. By MIC is commonly meant the least concentration at which growth counts as inhibited.

For the origin of these results see publication PMC7496091, “Small‐Molecule Inhibitors Targeting Sterol 14α‐Demethylase (CYP51): Synthesis, Molecular Modelling and Evaluation Against Candida albicans” (Chemmedchem, 2020).
